Measurements taken from the supplement of paper PMC11208160.

Assay: recombinant UMI read abundance after kanamycin selection (control-corrected) (log10(CPM+1)); higher = more efficient recombination; extreme values may be limits of the assay; sequences stand for … in AGTGCAGAGAAAATCGGCCAGTTTTCTCTGCCTGCAGTCCGCATGCCGTGGGACCCCTTGGGTTCTAACCTGTTGCCTAGATTTATGCAGCGGACTGCCTTTCTCCCAAAGTGATAAACCGG…AGGTTGGTTTCACT; site = the 11-nt donor
Procedure, shortened: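 The measure is log10(CPM+1) for recombinant UMIs. These were PCR-amplified across the donor–target junction and sequenced after Escherichia coli carrying a donor and donor-binding-loop pair library and a target plasmid with T7-inducible IS621 bridge recombinase was plated on IPTG (0.07 mM) plus kanamycin or unselected. CPM were averaged over two replicates and scaled by control-derived factors.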
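Also: IS621 bridge recombinase in Escherichia coli cells against a fixed T5 target plasmid.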

| Sequence | recombinant UMI read abundance (log10) |
| --- | --- |
| CGACTAACATGGACCGGTTTTCCCGGTAATCCGTATTTGGA (site CCACTAACTTC) | 0.226 |
| CGACTAACATGGACCGGTTTTCCCGGTAATCCGTATTTGGA (site CGACTAACTTC) | 1.74 |
| CGACTAACATGGACCGGTTTTCCCGGTAATCCGTATTTGGA (site CTACTAACTTC) | 0.554 |
| CGAGAACCATGGACCGGTTTTCCCGGTAATCCGTATTTGGG (site CGAGAACCTCC) | 0 |
| CGAGAACCATGGACCGGTTTTCCCGGTAATCCGTATTTGGG (site CGAGCACCTCC) | 0.00673 |
| CGAGAACCATGGACCGGTTTTCCCGGTAATCCGTATTTGGG (site CGAGGACCTCC) | 0.0198 |
| CGAGAACCATGGACCGGTTTTCCCGGTAATCCGTATTTGGG (site CGAGTACCTCC) | 0.00635 |
| CGAGAAGCATGGACCGGTTTTCCCGGTAATCCGTATTTGCT (site CGAGAAGCTAG) | 2.17 |
| CGAGAAGCATGGACCGGTTTTCCCGGTAATCCGTATTTGTC (site CGAGAAGCTGA) | 2.25 |
| CGAGAGTCATGGACCGGTTTTCCCGGTAATCCGTATTTGCC (site CGAGAGTCTGG) | 3.37 |
| CGAGAGTCATGGACCGGTTTTCCCGGTAATCCGTATTTGCC (site CGCGAGTCTGG) | 0 |
| CGAGAGTCATGGACCGGTTTTCCCGGTAATCCGTATTTGCC (site CGGGAGTCTGG) | 1.46 |
| CGAGAGTCATGGACCGGTTTTCCCGGTAATCCGTATTTGCC (site CGTGAGTCTGG) | 2.4 |
| CGAGCGACATGGACCGGTTTTCCCGGTAATCCGTATTTGTA (site CGAGCGACTTA) | 2.3 |
| CGAGGACCATGGACCGGTTTTCCCGGTAATCCGTATTTGAA (site CGAGGACCTTT) | 0.0106 |
| CGAGGACCATGGACCGGTTTTCCCGGTAATCCGTATTTGGC (site CGAGGACCTAC) | 0.0204 |
| CGAGGACCATGGACCGGTTTTCCCGGTAATCCGTATTTGGC (site CGAGGACCTCC) | 0.0246 |
| CGAGGACCATGGACCGGTTTTCCCGGTAATCCGTATTTGGC (site CGAGGACCTGC) | 0 |
| CGAGGACCATGGACCGGTTTTCCCGGTAATCCGTATTTGGC (site CGAGGACCTTC) | 0.013 |

| Sequence | recombinant UMI read abundance (log10) |
| --- | --- |
| CGAGGCCCATGGACCGGTTTTCCCGGTAATCCGTATTTGGG (site CGAGGACCTCC) | 0.0197 |
| CGAGGCCCATGGACCGGTTTTCCCGGTAATCCGTATTTGGG (site CGAGGCCCTCC) | 0.0196 |
| CGAGGCCCATGGACCGGTTTTCCCGGTAATCCGTATTTGGG (site CGAGGGCCTCC) | 0.016 |
| CGAGGCCCATGGACCGGTTTTCCCGGTAATCCGTATTTGGG (site CGAGGTCCTCC) | 0.00542 |
| CGAGTATCATGGACCGGTTTTCCCGGTAATCCGTATTTGCA (site ACAGTATCTTG) | 2.08 |
| CGAGTATCATGGACCGGTTTTCCCGGTAATCCGTATTTGCA (site CGAGTATCTTG) | 3 |
| CGAGTCCCATGGACCGGTTTTCCCGGTAATCCGTATTTGTG (site GTCAGTTCTAG) | 0 |
| CGATAAACATGGACCGGTTTTCCCGGTAATCCGTATTTGCT (site CGATAAACTAG) | 2.83 |
| CGATAAACATGGACCGGTTTTCCCGGTAATCCGTATTTGCT (site CGATCATCTAG) | 0 |
| CGATACACATGGACCGGTTTTCCCGGTAATCCGTATTTGCT (site CGATACACTAG) | 2.54 |
| CGATAGTCATGGACCGGTTTTCCCGGTAATCCGTATTTGCC (site CGATAGTCTGG) | 2.66 |
| CGATCAACATGGACCGGTTTTCCCGGTAATCCGTATTTGCG (site CGATCAACTCG) | 0.894 |
| CGATCAACATGGACCGGTTTTCCCGGTAATCCGTATTTGCG (site CGATCATCTAG) | 0 |
| CGATCAGCATGGACCGGTTTTCCCGGTAATCCGTATTTGTT (site CGATCAGCTAA) | 1.59 |
| CGATCAGCATGGACCGGTTTTCCCGGTAATCCGTATTTGTT (site CGATCATCTAG) | 0 |
| CGATCCTCATGGACCGGTTTTCCCGGTAATCCGTATTTGCG (site CGATCATCTAG) | 0 |
| CGATCCTCATGGACCGGTTTTCCCGGTAATCCGTATTTGCG (site CGATCCTCTCG) | 2.64 |
| CGATCCTCATGGACCGGTTTTCCCGGTAATCCGTATTTGCT (site CGATCATCTAG) | 0 |
| CGATCCTCATGGACCGGTTTTCCCGGTAATCCGTATTTGCT (site CGATCCTCTAG) | 2.82 |
